Measurements reported in ChEMBL document CHEMBL1201862, “PubChem BioAssay data set” (2004).
Active and inactive are the calls of the source.

Columns and labels:
HT-1080 = test: cytotoxicity in HT1080 fibrosarcoma cells, cell-based, fluorescence readout (AID 620); format: functional; details: Homo sapiens
Jurkat = test: antigen receptor-induced NF-kB inhibitors, dose response, Jurkat, luciferase reporter, luminescence, B- and T-cell (AID 489004); format: functional, cell-based; details: Homo sapiens;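 note: NF-kB luciferase reporter Jurkat cells stimulated with PMA plus ionomycin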
[1] = cytotoxicity in HEK-293T NF-kB-Luc cells, dose response, cytotoxicity control for B/T-cell NF-kB inhibitor project, cell-based, uHTS hits (AID 489019); format: functional;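 note: IC50 reflects cytotoxicity as loss of cell viability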
[2] = inhibitors of firefly luciferase expression or activity, dose response, H4 neuroglioma cells, luminescence (AID 1990); format: functional, cell-based
BJ [3] = test: cytotoxicity toward BJ-TERT fibroblasts, dose response, cell-based, RAS-independent, luminescence (AID 1933); format: functional; details: Homo sapiens
[4] = Luminescence Cell-Based Dose Response HTS to Identify Inhibitors of 5'UTR Stem-Loop Driven Prion Protein mRNA Translation in H4 Neuroglioblastoma Cells. [Related pubchem assays: 1827 (Project Summary), 1813 (Primary HTS)]; format: functional
Vero [5] = test: host cell cytotoxicity of antiviral hits, dose response, cytotoxicity control for West Nile virus antiviral project, secondary assay (AID 1650); format: functional; details: Chlorocebus sabaeus
[6] = inhibitors of SNCA 5'UTR-driven reporter translation, confirmation, H4 neuroglioma cells, luminescence (AID 1988); format: functional, cell-based
BJ [7] = test: cells; format: functional, cell-based; details: Homo sapiens
BJ [8] = test: cytotoxicity toward BJ-TERT-LT-ST fibroblasts, dose response, cell-based, RAS-independent, luminescence (AID 1935); format: functional; details: Homo sapiens;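 note: BJ fibroblasts immortalized with TERT plus LT and ST oncogenes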
[9] = cytotoxicity toward DRD oncogenic fibroblasts, dose response, cell-based, non-viral oncogenic, luminescence (AID 1934); format: functional; details: Homo sapiens
[10] = biological target: Voltage-dependent T-type calcium channel subunit alpha-1H (Homo sapiens, UniProt O95180); format: functional;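 note: channel activity triggered by adding a high calcium stimulation buffer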
BJ [11] = test: cytotoxicity toward Ras-transformed BJeLR fibroblasts, dose response, cell-based, alamar blue fluorescence, cherrypicked samples (AID 2631); format: functional; details: Homo sapiens;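 note: confirmatory dose-response assay in RAS-dependent BJ fibroblasts engineered with TERT, LT and ST, with cytotoxicity read by fluorescence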
[12] = Shn3 3'UTR reporter inhibitors, dose response, cell-based, Clone20 osteoblasts, firefly luciferase, cherry-picked (AID 624132); format: functional;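 note: firefly luciferase luminescence from reporter carrying the Shn3 3'UTR in osteoblasts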
[13] = HepG2 cell cytotoxicity, dose response, cytotoxicity control for Shn3 inhibitor project, CellTiter-Glo, cherry-picked (AID 624134); format: functional, cell-based
[14] = control 3'UTR Renilla luciferase suppression, dose response, counter-screen for Shn3 inhibitor project, cell-based, Clone20-Shn3RL, cherry-picked (AID 624133); format: functional
Fatty acid synthase [15] = biological target: T1, Fatty acid synthase (Homo sapiens, UniProt P49327); test: FAS thioesterase domain inhibitors, dose response, biochemical, endpoint fluorescence intensity, uHTS hits (AID 624327); format: functional;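 note: fluorescence from hydrolysis of an O-methyl fluorescein acyl ester substrate by the enzyme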
Fatty acid synthase [16] = biological target: T1, Fatty acid synthase; test: FAS thioesterase domain inhibitors, dose response, biochemical, kinetic fluorescence intensity (AID 624326); format: functional;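 note: rate of fluorescence rise from hydrolysis of a fluorogenic O-methyl fluorescein ester substrate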
[17] = biological target: Glyceraldehyde-3-phosphate dehydrogenase (Homo sapiens, UniProt P04406)
Bcl-2-related protein A1 [18] = biological target: T2, Bcl-2-related protein A1 (Mus musculus, UniProt Q07440); test: Bfl-1 inhibitors blocking BH3 peptide binding, confirmation, biochemical, TR-FRET, mouse Bfl-1 (AID 621);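 note: TR-FRET binding of GST-Bfl-1 to FITC-labelled Bid peptide via terbium antibody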
T2 sequence (Q07440 whole entry): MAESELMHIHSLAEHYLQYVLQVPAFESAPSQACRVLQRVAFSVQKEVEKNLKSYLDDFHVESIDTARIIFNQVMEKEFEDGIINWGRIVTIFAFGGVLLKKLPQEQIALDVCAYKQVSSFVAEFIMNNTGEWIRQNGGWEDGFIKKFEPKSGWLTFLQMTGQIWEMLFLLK

Bcl-2-related protein A1 [19] = biological target: T2, Bcl-2-related protein A1; test: Bfl-1 binding inhibitors, SAR follow-up, biochemical, fluorescence polarization (AID 1070)
Vero [20] = test: cells; format: functional, cell-based; details: Chlorocebus sabaeus
Vero [21] = test: cells; format: functional; details: Chlorocebus sabaeus
[22] = biological target: Mitogen-activated protein kinase 10 (Homo sapiens, UniProt P53779); test: Dose response biochemical screening assay for inhibitors of c-Jun N-Terminal Kinase 3 (JNK3). [Related pubchem assays: 746 ]
Cytochrome P450 2C19 = Cytochrome P450 2C19 (Homo sapiens, UniProt P33261); test: Cytochrome panel assay with activity outcomes. Panel member name: p450-cyp2c19 Compounds with AC50 equal or less than 10 uM are considered active; format: functional; details: read-out: AC50
Cytochrome P450 1A2 = biological target: T3, Cytochrome P450 1A2 (Homo sapiens, UniProt P05177);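 note: PubChem cytochrome P450 panel assay, CYP1A2 panel member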
T3 sequence (P05177 whole entry): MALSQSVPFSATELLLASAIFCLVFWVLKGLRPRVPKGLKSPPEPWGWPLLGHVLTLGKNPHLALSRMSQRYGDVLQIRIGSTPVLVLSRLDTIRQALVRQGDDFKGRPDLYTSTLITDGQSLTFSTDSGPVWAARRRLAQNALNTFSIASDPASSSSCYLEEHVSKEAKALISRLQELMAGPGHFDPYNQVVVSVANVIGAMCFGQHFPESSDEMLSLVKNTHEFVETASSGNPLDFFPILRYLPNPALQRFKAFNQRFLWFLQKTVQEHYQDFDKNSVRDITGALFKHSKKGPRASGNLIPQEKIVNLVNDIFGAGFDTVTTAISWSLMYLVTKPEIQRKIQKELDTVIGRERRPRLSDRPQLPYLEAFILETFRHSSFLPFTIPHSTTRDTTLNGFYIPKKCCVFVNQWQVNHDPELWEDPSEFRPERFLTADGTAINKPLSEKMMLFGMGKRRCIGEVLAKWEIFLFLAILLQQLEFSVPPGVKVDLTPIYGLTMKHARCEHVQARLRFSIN

[23] = Luminescence Cell-Based Dose Response to Identify Activators of 5'UTR Stem-Loop Driven Prion Protein mRNA Translation in H4-C Neuroglioblastoma Cells. [Related pubchem assays: 1829 (Project Summary), 1814 (Primary HTS)]; format: functional
[24] = Luminescence Cell-Based Dose Response HTS to Identify Activators of Luciferase Translation or Activity in H4 […] Cells. [Related pubchem assays: 1829 (Project Summary), 1814 (Primary HTS)]; format: functional
H4 = test: Luminescence Cell-Based Dose Response HTS to Identify Activators of 5'UTR Stem-Loop Driven Prion Protein mRNA Translation in H4 Neuroglioblastoma Cells. [Related pubchem assays: 1829 (Project Summary), 1814 (Primary HTS)]; format: functional; details: Homo sapiens
[25] = Luminescence Cell-Based Dose Response to Identify Activators of Luciferase Translation or Activity in H4-C Neuroglioblastoma Cells. [Related pubchem assays: 1829 (Project Summary), 1814 (Primary HTS)]; format: functional
[26] = Luminescence Cell-Based Dose Confirmation to Identify Activators of 5'UTR Stem-Loop Driven Alpha-Synuclein mRNA Translation in H4 Neuroglioblastoma Cells. [Related pubchem assays: 1829 (Project Summary), 1814 (Primary HTS)]; format: functional
[27] = biological target: 26S proteasome non-ATPase regulatory subunit 14 (Homo sapiens, UniProt O00487); test: inhibition of proteasome subunit RPN11 – biochemical, fluorescence polarization, uHTS hits, confirmation (AID 602368); format: functional
[28] = biological target: 72 kDa type IV collagenase (Homo sapiens, UniProt P08253); test: Dose Response validation of uHTS RPN11 inhibitor hits using a MMP-2 Fluorescence assay.; format: functional
Prothrombin = Prothrombin (Bos taurus, UniProt P00735); test: thrombin inhibition, dose response, biochemical, fluorescence polarization, uHTS hits (AID 602369); format: functional
[29] = Luminescence Cell-Based Dose Confirmation HTS to Identify Activators of 5'UTR Stem-Loop Driven Alpha-Synuclein mRNA Translation in H4 Neuroglioblastoma Cells. [Related pubchem assays: 1829 (Project Summary), 1814 (Primary HTS)]; format: functional
[30] = biological target: T4, Ubiquitin-conjugating enzyme E2 N (Homo sapiens, UniProt P61088); format: functional;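 note: Dose-response confirmation in a TR-FRET assay detecting UBC13-driven polyubiquitin chain formation, inhibition measured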
T4 sequence (P61088 whole entry): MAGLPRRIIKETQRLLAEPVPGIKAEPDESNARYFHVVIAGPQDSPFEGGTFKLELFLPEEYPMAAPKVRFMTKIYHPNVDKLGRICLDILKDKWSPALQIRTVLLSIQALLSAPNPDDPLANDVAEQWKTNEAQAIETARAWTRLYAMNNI

[31] = P. falciparum Dd2 growth inhibitors, dose response, SYBR Green, dry powder samples, set 9 (AID 1159568); format: functional, cell-based
[32] = Concentration-dependent survival of SW480 colon cancer line, luminescence detection with CellTiter-Glo, half-maximal inhibitory concentration (AID 1117338); format: functional
[33] = RKO cell viability reduction, dose response, CellTiter-Glo luminescence (AID 1117322); format: functional
[34] = cytotoxicity toward HCT116 cells – cell-based, CellTiter-Glo luminescence, IC50, dose response (AID 1117332); format: functional; details: HCT-116
[35] = SNU-C1 cell viability reduction, dose response, CellTiter-Glo luminescence (AID 1117323); format: functional, cell-based
[36] = cytotoxicity toward Colo320 cells – cell-based, CellTiter-Glo luminescence, IC50, dose response (AID 1117334); format: functional; details: COLO 320
[37] = cytotoxicity toward HT-29 cells – cell-based, CellTiter-Glo luminescence, IC50, dose response (AID 1117330); format: functional
[38] = CellTiter-Glo luminescent dose response of DLD-1 viability loss (AID 1117352); format: functional
[39] = HCT116 cell viability decrease, GSK3B pretreatment – CellTiter-Glo, IC50, dose response (AID 1117339); format: functional; details: HCT-116

Chain of Mitogen-activated protein kinase 10 (P53779 whole entry): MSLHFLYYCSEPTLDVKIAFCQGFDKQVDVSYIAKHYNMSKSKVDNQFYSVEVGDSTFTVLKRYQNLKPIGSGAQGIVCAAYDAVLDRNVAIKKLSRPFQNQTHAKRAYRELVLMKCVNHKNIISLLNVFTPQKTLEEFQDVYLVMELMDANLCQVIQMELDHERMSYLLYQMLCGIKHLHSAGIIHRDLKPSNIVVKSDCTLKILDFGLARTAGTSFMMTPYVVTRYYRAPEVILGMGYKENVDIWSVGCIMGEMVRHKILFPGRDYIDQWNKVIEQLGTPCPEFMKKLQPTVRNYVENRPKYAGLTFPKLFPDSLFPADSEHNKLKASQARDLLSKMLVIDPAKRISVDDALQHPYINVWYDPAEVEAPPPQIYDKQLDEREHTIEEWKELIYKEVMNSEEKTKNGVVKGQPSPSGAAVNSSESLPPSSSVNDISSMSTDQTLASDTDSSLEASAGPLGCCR
T1 sequence (P49327 whole entry, the tested form may be a part): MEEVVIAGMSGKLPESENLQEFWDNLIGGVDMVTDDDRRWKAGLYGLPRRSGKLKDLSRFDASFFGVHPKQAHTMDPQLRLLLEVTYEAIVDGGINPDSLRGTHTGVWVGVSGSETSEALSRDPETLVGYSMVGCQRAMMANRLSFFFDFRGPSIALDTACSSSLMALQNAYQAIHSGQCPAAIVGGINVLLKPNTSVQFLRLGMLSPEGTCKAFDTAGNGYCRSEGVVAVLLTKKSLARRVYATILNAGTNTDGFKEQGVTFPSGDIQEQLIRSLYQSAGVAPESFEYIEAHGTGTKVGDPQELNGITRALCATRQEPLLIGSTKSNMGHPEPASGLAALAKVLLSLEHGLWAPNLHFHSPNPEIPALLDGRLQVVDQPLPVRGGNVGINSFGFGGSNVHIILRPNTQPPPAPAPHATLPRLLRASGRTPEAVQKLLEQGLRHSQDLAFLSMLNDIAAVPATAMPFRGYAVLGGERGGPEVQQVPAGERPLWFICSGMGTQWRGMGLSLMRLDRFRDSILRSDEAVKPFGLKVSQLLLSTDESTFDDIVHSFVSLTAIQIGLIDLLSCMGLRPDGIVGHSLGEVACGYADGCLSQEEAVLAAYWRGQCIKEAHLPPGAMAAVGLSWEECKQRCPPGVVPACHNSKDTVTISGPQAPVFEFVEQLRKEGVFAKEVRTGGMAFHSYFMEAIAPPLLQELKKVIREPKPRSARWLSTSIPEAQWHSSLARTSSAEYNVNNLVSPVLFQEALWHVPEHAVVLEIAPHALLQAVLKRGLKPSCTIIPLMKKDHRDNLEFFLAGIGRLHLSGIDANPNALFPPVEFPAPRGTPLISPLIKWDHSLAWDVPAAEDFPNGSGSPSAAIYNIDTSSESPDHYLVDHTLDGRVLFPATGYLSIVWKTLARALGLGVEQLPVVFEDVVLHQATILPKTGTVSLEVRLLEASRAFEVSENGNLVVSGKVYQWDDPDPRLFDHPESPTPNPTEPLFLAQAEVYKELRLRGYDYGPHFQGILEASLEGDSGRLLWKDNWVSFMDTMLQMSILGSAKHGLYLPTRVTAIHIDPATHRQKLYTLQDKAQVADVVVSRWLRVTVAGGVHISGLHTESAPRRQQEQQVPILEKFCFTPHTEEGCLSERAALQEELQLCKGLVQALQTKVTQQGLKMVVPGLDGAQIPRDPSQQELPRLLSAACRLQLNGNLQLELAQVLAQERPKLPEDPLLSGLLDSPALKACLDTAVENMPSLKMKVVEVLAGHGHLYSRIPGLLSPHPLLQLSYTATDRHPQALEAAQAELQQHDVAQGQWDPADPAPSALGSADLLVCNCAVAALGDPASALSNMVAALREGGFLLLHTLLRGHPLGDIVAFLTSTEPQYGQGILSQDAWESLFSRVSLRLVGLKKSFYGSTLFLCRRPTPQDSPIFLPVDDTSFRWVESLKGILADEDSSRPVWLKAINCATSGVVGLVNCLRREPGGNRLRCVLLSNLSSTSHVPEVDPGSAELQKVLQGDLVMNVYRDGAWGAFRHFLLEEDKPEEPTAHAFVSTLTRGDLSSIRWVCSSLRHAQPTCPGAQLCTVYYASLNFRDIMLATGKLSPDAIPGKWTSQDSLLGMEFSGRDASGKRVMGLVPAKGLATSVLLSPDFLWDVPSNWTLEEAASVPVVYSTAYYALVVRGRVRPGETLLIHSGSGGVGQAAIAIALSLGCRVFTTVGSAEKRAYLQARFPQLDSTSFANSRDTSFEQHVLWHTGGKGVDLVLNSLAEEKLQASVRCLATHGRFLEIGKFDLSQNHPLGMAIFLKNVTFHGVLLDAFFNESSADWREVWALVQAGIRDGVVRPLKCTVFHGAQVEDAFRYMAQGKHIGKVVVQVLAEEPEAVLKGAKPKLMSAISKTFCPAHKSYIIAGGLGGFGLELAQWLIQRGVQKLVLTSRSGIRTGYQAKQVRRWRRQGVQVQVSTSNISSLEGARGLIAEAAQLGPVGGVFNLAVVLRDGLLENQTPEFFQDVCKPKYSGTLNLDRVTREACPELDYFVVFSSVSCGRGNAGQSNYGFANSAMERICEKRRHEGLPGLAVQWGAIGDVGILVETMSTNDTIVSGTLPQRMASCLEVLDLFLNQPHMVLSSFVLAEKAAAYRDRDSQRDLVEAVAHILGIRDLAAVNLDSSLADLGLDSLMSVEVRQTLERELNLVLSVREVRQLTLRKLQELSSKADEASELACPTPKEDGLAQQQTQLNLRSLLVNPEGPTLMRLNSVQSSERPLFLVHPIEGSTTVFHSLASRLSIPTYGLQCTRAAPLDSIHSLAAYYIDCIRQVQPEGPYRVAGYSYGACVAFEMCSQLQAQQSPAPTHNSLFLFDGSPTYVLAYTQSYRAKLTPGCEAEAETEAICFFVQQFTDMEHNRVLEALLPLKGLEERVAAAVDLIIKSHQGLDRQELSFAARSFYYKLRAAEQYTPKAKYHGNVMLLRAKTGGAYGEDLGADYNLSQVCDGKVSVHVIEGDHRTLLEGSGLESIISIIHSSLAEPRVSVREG
Chain of 26S proteasome non-ATPase regulatory subunit 14 (O00487 whole entry): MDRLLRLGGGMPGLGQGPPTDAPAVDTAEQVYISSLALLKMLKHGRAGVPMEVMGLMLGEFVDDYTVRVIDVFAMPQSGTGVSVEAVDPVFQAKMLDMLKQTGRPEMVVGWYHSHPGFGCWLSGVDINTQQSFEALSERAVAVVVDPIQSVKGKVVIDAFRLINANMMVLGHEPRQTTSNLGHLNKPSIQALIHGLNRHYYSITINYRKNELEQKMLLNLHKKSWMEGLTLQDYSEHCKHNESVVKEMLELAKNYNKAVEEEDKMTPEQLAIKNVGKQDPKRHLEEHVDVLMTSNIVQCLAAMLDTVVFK
Chain of 72 kDa type IV collagenase (P08253 whole entry): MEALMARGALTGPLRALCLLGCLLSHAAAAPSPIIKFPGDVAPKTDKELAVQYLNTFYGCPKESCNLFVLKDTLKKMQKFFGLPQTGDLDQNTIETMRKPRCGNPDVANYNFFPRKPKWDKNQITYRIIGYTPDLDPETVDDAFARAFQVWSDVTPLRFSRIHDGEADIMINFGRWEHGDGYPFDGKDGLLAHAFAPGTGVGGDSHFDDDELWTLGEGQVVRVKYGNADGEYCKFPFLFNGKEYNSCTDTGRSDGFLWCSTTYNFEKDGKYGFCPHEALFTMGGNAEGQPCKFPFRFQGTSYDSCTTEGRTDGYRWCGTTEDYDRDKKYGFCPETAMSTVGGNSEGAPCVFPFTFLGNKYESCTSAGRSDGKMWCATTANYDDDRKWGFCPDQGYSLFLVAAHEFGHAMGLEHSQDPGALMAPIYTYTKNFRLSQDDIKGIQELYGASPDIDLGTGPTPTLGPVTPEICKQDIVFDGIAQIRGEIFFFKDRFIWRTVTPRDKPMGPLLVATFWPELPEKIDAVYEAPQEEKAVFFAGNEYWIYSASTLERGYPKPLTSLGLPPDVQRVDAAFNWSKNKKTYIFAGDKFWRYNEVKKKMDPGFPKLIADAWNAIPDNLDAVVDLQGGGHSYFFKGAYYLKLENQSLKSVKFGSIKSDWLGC
Chain of Cytochrome P450 2C19 (P33261 whole entry): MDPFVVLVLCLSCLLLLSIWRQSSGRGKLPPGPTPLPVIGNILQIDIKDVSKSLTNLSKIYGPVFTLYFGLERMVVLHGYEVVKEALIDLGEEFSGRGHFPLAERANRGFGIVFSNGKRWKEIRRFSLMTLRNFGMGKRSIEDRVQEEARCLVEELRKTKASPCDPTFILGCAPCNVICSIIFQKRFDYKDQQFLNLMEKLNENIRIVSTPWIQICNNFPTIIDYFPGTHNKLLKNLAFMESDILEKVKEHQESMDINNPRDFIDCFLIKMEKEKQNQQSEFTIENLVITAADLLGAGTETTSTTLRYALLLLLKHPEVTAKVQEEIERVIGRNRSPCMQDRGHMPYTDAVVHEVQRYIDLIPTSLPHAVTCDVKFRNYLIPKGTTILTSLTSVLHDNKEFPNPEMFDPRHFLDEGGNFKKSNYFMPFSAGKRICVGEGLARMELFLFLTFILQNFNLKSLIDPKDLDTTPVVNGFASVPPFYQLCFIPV
Chain of Glyceraldehyde-3-phosphate dehydrogenase (P04406 whole entry): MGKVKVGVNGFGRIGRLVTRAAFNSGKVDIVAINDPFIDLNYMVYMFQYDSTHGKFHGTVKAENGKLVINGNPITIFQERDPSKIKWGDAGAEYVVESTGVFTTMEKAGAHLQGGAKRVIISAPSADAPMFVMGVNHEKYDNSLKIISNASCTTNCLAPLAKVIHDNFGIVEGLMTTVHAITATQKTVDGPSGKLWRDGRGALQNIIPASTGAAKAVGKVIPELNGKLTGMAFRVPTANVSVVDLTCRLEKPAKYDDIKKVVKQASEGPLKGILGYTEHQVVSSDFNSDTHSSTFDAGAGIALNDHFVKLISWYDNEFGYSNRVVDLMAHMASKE

With `N#Cc1c(NC(=O)CSc2nc[nH]n2)sc2c1CCCC2` the EC50 (HT-1080) was > 50 µM (not active), the IC50 (Jurkat) was 0.64 µM (active) and the IC50 [1] was > 80 µM (inactive).

With `CCn1cc(C(=O)NCc2ccco2)c(=O)c2cc(S(=O)(=O)N3CC(C)CC(C)C3)ccc21` (stereo unspecified) the EC50 [2] was 9.5 µM (active), the EC50 (BJ [3]) was > 150 µM (not active) and the EC50 [4] was 0.503 µM (active). For the same molecule, the CC50 (Vero [5]) was 32.1 µM (active), the EC50 [6] was 10.9 µM (active) and the EC50 (BJ [7]) was 5.24 µM (active). The EC50 (BJ [8]) was > 150 µM (inconclusive), the EC50 [9] was 7.64 µM (active) and the EC50 [10] was 2.49 µM (active). The EC50 (BJ [11]) was > 133 µM (inactive), the AC50 [12] was 0.778 µM (active) and the AC50 [13] was 4.32 µM (active). For the same molecule, the AC50 [14] was 1.67 µM (active), the IC50 (Fatty acid synthase [15]) was 4.25 µM (active) and the IC50 (Fatty acid synthase [16]) was 4.14 µM (active).

In the case of `CC1CN(C2=C(Cl)C(=O)N(c3ccc(Cl)c(Cl)c3)C2=O)CCN1c1ccccc1` (stereo unspecified), the IC50 [17] is reported as > 100 µM (not active), the IC50 (Bcl-2-related protein A1 [18]) is reported as 19.3 µM (active) and the IC50 (Bcl-2-related protein A1 [19]) is reported as > 100 µM (not active).

For `COc1ccc(CCNC(=O)/C=C/c2ccc3ccccc3n2)cc1OC`, the CC50 (Vero [5]) was 12 µM (active), the IC50 (Vero [20]) was > 25 µM (active) and the CC50 (Vero [21]) was 16.4 µM (active).

With `Cc1cc(C(F)F)n2ncc(C(=O)NCc3ccccc3C(F)(F)F)c2n1` the IC50 [22] was 26.2 µM (not active), the AC50 (Cytochrome P450 2C19) was 6.31 µM (inconclusive) and the AC50 (Cytochrome P450 1A2) was 0.708 µM (inconclusive).

With `COC(=O)c1c(-c2cccnc2)csc1NC(=O)c1cc(C)on1` the EC50 [23] was 0.321 µM (active), the EC50 [24] was < 0.1 µM (inconclusive) and the EC50 (H4) was 19.9 µM (inconclusive). The EC50 [25] was 0.387 µM (active), the EC50 [26] was 0.435 µM (active) and the IC50 [27] was 29.6 µM (active). The IC50 [28] was > 100 µM (inactive) and the IC50 (Prothrombin) was 48.3 µM (active).

In the case of `CCOC(=O)c1csc(-c2ccc3c(c2)CCO3)n1`, the EC50 [23] is reported as > 12 µM (not active), the EC50 [29] is reported as 0.127 µM (active) and the EC50 [24] is reported as < 0.1 µM (active). For the same molecule, the EC50 (H4) was 0.552 µM (active), the EC50 [25] was > 12 µM (not active) and the EC50 [26] was > 12 µM (not active).

In the case of `CCOC(=O)CSc1nc2ccccc2c(=O)n1CCCCCC(=O)NCc1ccco1`, the IC50 [22] is reported as 43.3 µM (not active) and the IC50 [30] is reported as > 20 µM (inactive).

With `COc1ccccc1S(=O)(=O)N(C)C[C@@H]1OCc2ccccc2-c2ccccc2C(=O)N([C@H](C)CO)C[C@@H]1C` the AC50 [31] was 4.71 µM (active).

With `C[C@@H]1CN([C@@H](C)CO)C(=O)c2cc(NC(=O)Nc3ccc4c(c3)OCO4)ccc2O[C@@H](C)CCCCO[C@H]1CN(C)S(=O)(=O)c1ccccc1` the AC50 [31] was 4.34 µM (active).

With `O=C1c2ccccc2C(=O)C1C(=O)C(c1ccccc1)c1ccccc1` [DIPHENADIONE] the IC50 [32] was 0.536 µM (active), the IC50 [33] was 1.59 µM (active) and the IC50 [34] was 0.531 µM (active). The IC50 [35] was 4.01 µM (active), the IC50 [36] was 0.621 µM (active) and the IC50 [37] was 4.48 µM (active). For the same molecule, the IC50 [38] was 1.33 µM (active) and the IC50 [39] was 0.567 µM (active).

For `Cc1ccc(C(=O)c2cc(O)c(O)c([N+](=O)[O-])c2)cc1` [TOLCAPONE], the IC50 [32] was 4.64 µM (active), the IC50 [33] was 1.88 µM (active) and the IC50 [34] was 2.29 µM (active). The IC50 [35] was 4.54 µM (active), the IC50 [36] was 2.5 µM (active) and the IC50 [37] was > 20 µM (inactive). The IC50 [38] was 6.14 µM (inactive) and the IC50 [39] was 0.265 µM (active).
